# Source: patent publication US20090142431A1 (U.S. Nutraceuticals, LLC d/b/a Valensa International, priority 2005, published 2009)
# Tests used:
# [1] = test system: poxvirus vGK5; assay type: cell-based
# [2] = compared with alpha-tocopherol; cited from earlier work
smiles,measurement,setting,value
"CC1=C(/C=C/C(C)=C/C=C/C(C)=C/C=C/C=C(C)/C=C/C=C(C)/C=C/C2=C(C)C(=O)C(O)CC2(C)C)C(C)(C)CC(O)C1=O (stereo not drawn) [astaxanthin, 3,3′-dihydroxy-β,β-carotene-4,4′-dione]",IC50,[1],less than 125 ppm
same,ability to quench singlet oxygen relative to alpha-tocopherol,[2],over five hundred times
